Source: ChEMBL document CHEMBL1201862, “PubChem BioAssay data set” (2004)
“And” between values parts separate entries of the source, which are not always exact repeats. Equal values may be shown once. The source made the active and inactive calls.

Assays:
Cytochrome P450 2C19 = Cytochrome P450 2C19 (Homo sapiens, UniProt P33261); experiment: Cytochrome panel assay with activity outcomes. Panel member name: p450-cyp2c19 Compounds with AC50 equal or less than 10 uM are considered active; format: functional
Sequence of Cytochrome P450 2C19 (P33261 whole entry): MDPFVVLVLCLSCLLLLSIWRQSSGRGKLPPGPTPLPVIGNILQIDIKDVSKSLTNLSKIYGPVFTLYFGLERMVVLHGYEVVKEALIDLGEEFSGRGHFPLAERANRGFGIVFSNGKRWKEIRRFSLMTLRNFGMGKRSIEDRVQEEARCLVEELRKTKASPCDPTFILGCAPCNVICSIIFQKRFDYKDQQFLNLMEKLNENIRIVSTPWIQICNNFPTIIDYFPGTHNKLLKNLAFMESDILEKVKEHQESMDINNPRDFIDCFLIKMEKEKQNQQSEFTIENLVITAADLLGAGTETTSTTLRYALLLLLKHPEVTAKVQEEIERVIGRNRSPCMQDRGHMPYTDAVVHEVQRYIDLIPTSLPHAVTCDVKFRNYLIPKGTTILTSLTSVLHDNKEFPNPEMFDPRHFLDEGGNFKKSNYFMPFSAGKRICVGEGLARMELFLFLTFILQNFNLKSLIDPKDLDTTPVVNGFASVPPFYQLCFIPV

Cytochrome P450 3A4 = Cytochrome P450 3A4 (Homo sapiens, UniProt P08684);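 further: CYP3A4 tested as one member of a cytochrome P450 panel screen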
Sequence of Cytochrome P450 3A4 (P08684 whole entry): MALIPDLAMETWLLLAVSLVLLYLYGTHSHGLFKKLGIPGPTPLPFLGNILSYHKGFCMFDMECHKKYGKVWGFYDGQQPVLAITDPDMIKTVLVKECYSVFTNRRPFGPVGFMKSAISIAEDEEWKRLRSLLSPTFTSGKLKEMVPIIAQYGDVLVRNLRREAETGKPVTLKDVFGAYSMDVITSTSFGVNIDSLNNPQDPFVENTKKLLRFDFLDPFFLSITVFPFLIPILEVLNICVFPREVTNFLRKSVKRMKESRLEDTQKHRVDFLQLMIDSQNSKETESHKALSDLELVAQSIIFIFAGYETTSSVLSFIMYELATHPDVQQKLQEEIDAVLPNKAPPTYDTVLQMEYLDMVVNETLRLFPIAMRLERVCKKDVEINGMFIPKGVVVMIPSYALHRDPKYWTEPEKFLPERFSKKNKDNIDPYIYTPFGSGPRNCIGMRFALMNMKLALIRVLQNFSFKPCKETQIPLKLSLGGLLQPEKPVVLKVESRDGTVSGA

Cytochrome P450 2C9 = Cytochrome P450 2C9 (Homo sapiens, UniProt P11712)
Sequence of Cytochrome P450 2C9 (P11712 whole entry): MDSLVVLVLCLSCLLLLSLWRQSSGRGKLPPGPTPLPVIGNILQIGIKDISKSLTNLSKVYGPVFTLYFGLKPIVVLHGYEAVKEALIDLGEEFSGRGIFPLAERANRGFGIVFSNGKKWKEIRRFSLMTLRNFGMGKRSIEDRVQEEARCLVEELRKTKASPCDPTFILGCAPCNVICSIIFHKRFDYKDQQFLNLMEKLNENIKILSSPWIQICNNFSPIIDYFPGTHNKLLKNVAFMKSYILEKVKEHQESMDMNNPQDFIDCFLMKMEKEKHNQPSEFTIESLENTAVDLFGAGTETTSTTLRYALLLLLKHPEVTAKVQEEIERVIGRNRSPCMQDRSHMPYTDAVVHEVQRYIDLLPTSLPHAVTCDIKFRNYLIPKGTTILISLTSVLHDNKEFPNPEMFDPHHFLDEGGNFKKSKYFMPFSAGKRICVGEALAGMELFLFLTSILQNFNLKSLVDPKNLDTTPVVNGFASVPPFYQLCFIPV

Cytochrome P450 1A2 = biological target: T1, Cytochrome P450 1A2 (Homo sapiens, UniProt P05177);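 further: PubChem cytochrome P450 panel assay, CYP1A2 panel member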
T1 sequence (P05177 whole entry): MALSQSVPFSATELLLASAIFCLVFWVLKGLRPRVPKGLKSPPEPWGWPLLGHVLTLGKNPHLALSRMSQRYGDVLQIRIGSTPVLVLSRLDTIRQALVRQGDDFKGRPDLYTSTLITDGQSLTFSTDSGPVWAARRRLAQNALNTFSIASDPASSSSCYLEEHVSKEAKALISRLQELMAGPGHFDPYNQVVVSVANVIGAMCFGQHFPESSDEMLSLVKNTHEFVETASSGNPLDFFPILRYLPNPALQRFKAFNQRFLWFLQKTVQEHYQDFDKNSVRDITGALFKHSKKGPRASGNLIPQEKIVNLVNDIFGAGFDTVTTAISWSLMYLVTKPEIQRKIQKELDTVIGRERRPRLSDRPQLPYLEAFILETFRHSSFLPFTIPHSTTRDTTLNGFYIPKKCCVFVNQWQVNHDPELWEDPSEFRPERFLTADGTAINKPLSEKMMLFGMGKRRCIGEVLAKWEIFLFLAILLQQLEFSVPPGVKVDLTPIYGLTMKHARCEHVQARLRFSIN

[1] = Luminescence Cell-Based Dose Retest to Confirm Inhibitors of Cancer Stem Cells. [Related pubchem assays (depositor defined):AID2717, AID2721]; format: functional; settings: Homo sapiens
Streptococcus = experiment: GAS UMAA2166 growth inhibition – luminescence, BacTiterGlo, counter-screen for streptokinase expression inhibitor project, dose response (AID 1915); format: functional, organism-based;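 further: potency for reduction of bacterial viability or growth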
[2] = tested on: Streptococcus sp. 'group A'; experiment: Streptococcus pyogenes SK(-)GAS viability under kanamycin – luminescence, BacTiterGlo, confirmation, counter-screen for streptokinase expression inhibitor project, dose response (AID 1900); format: functional, organism-based
[3] = Trypanosoma cruzi growth suppression in host cells – NIH3T3 host cells, beta-gal luminescence, confirmation (AID 2044); format: functional, cell-based;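 further: intracellular parasites grown in NIH/3T3 mouse fibroblasts as host cells; luminescent beta-galactosidase reporter signal from transgenic T. cruzi replicating inside host cells; inhibitors lower the luminescence signal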
[4] = NIH3T3 cell viability loss – ATP luminescence, mouse fibroblasts, counter-screen, dose response (AID 2010); format: functional, cell-based;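 further: cells exposed to compound for about 90 hours before reading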

SMILES: COC(=O)c1c(-c2cc(OC)c(OC)c(OC)c2)c2ccc(OCc3ccccn3)cc2c(=O)n1-c1ccc(N)cc1
- AC50 (Cytochrome P450 2C19; read-out: AC50): 10 µM (inconclusive)

SMILES: Fc1ccc(CSc2nnc(-c3cc4c(s3)-c3ccccc3CC4)o2)cc1
- AC50 (Cytochrome P450 2C19): inconclusive
- AC50 (Cytochrome P450 3A4): 15.8 µM (inconclusive)

SMILES: Cc1nonc1NCn1nnc2ccccc21
- AC50 (Cytochrome P450 2C19; read-out: AC50): 14.1 µM (inconclusive)
- AC50 (Cytochrome P450 2C9): 5.01 µM (inconclusive)
- AC50 (Cytochrome P450 1A2): 8.91 µM (inconclusive)

SMILES: CCc1c(C2(O)CCCCC2)[nH]c2c(C(=O)OC)cc(Cl)cc12
- AC50 [1]: 1.89 µM (active)
- EC50 (Streptococcus): 5.96 µM (active)
- EC50 [2]: 2.62 µM (active)

SMILES: COC(=O)CSc1ccc(C#N)c(SCC(=O)OC)c1
- AC50 (Cytochrome P450 2C9): 20 µM (inconclusive)

SMILES: Cc1cc(C)c(S(=O)(=O)NCC2CCC(C(=O)NCc3ccc4c(c3)OCO4)CC2)c(C)c1 (stereo not drawn)
- AC50 (Cytochrome P450 1A2): 17.8 µM (inconclusive)

SMILES: O=C(NCC1CCCC(CNC(=O)Nc2ccc(Cl)cn2)C1)Nc1ccc(Cl)cn1 (stereo not drawn)
- EC50 [3]: 1.18 µM (active)
- EC50 [4]: > 60 µM (not active)

SMILES: CN(C)CCCN(C(=O)/C=C/c1cccs1)c1nc2c(F)cccc2s1
- EC50 [3]: 1.86 µM (active)
- EC50 [4]: > 60 µM (not active)

SMILES: O=C(CCN1C(=O)C2C3C=CC(C3)C2C1=O)Nc1c(F)cccc1F (stereo not drawn)
- AC50 (Cytochrome P450 2C19; read-out: AC50): 39.8 µM (inconclusive)

SMILES: COc1cccc(Nc2nc(N)nc(CCl)n2)c1
- EC50 [3]: 1.7 µM (active)
- EC50 [4]: 4.11 µM (active)

SMILES: CC12CN3CC(C)(CN(C1)C3c1ccc([N+](=O)[O-])o1)C2=O (stereo not drawn)
- EC50 [3]: 0.784 µM (active)
- EC50 [4]: > 60 µM (not active)

SMILES: Cc1nn(C(=O)c2ccco2)c(C)c1Sc1ccccc1
- AC50 (Cytochrome P450 3A4): 39.8 µM (inconclusive)
- AC50 (Cytochrome P450 2C9): 2.24 µM (inconclusive)

SMILES: CO[C@@H]1COC(=O)C/C=C\[C@@H](C)[C@H](OC)COC(=O)[C@H](COCc2ccccc2)NC(=O)C/C=C\[C@H]1C
- AC50 (Cytochrome P450 2C19; read-out: AC50): 2 µM (inconclusive)
- AC50 (Cytochrome P450 3A4): 5.01 µM (inconclusive)

SMILES: O=C(NC1CCN(Cc2ccccc2)CC1)c1ccc(Cn2c(=S)[nH]c3ccc(N4CCOCC4)cc3c2=O)cc1
- EC50 [3]: 1.3 µM (active)
- EC50 [4]: 10.4 µM (active)

SMILES: N#Cc1cccc(-c2ccc3ncnc(NC4CCNCC4)c3c2)c1
- AC50 (Cytochrome P450 2C19; read-out: AC50): 25.1 µM (inconclusive)

SMILES: O=C(CCN1CCc2ccccc2C1)Nc1ccc(F)cc1
- AC50 (Cytochrome P450 3A4): 15.8 µM (inconclusive)
- AC50 (Cytochrome P450 1A2): 0.398 µM (inconclusive)

SMILES: CN1CCN(c2ncncc2-c2ccccc2Cl)CC1
- AC50 (Cytochrome P450 1A2): 2.51 µM (inconclusive)

SMILES: CC(=O)Nc1ccc(OCC(O)Cn2c3ccccc3c3ccccc32)c(C)c1 (stereo not drawn)
- EC50 [3]: 2.11 µM (active)
- EC50 [4]: 9.57 µM (active)

SMILES: Cc1c(-c2cccc(Cl)c2)nc2ccccc2c1C(=O)OC/C(O)=C(\C#N)c1nc2ccccc2[nH]1
- AC50 [1]: 1.75 µM (active)
- EC50 (Streptococcus): 2.6 µM (active)
- EC50 [2]: 2.23 µM (active)

SMILES: c1ccc(CNc2ncncc2-c2ccoc2)cc1
- AC50 (Cytochrome P450 2C9): 0.501 µM (inconclusive)

SMILES: COc1ccccc1CN1CCCC2(CCN(C(=O)c3cccn3C)CC2)C1
- AC50 (Cytochrome P450 3A4): 20 µM (inconclusive)

SMILES: O=C(c1ccc(C#CC2(O)CCCCC2)cc1)N1CCN(C(c2ccccc2)c2ccccc2)CC1
- AC50 [1]: 0.482 µM (active)

SMILES: CN1C(=O)C(C2c3ccccc3C(=O)N2Cc2ccc([N+](=O)[O-])cc2)C(=O)N(C)C1=O (stereo not drawn)
- AC50 (Cytochrome P450 2C19; read-out: AC50): 14.1 µM (inconclusive)

SMILES: CCOCCCNCc1ccc(OCCC(C)C)c(OC)c1
- EC50 [3]: 0.17 µM (active)
- EC50 [4]: > 60 µM (not active)

SMILES: CN1CCN(c2nc(-c3ccoc3)nc3ccccc23)CC1
- AC50 (Cytochrome P450 3A4): 20 µM (inconclusive)

SMILES: C=CCNc1nc(Cl)nc(Nc2ccc(OC)cc2)n1
- AC50 (Cytochrome P450 2C19; read-out: AC50): 0.224 µM (inconclusive)

SMILES: COc1ccccc1N1CCN(C[C@@H](O)COc2cccc3ccccc23)CC1
- AC50 (Cytochrome P450 1A2): 12.6 µM (inconclusive) and 31.6 µM (inconclusive) and 20 µM (inconclusive)

SMILES: CN(C)CCCN(C(=O)COc1ccc(Cl)cc1)c1nc2c(F)cccc2s1
- EC50 [3]: 0.128 µM (active)
- EC50 [4]: > 60 µM (inconclusive)

SMILES: N#CCCn1c(=O)cnc2cnc(OCc3ccccc3)nc21
- AC50 (Cytochrome P450 2C19): inconclusive

SMILES: COc1cccc(Cn2c(=O)c(-c3ccccc3)nc3cnc(N4CCN(C)CC4)nc32)c1
- AC50 (Cytochrome P450 3A4): 31.6 µM (inconclusive)

SMILES: Cc1ccc(CNC(=O)[C@H]2C[C@@H]2[C@H](NP(=O)(c2ccccc2)c2ccccc2)c2ccccc2)c(F)c1F
- AC50 (Cytochrome P450 2C19; read-out: AC50): 0.0398 µM (inconclusive)

SMILES: O=c1c(-c2cc(F)cc(F)c2)nc2cncnc2n1-c1ccccc1
- AC50 (Cytochrome P450 2C19; read-out: AC50): 6.31 µM (inconclusive)
- AC50 (Cytochrome P450 2C9): 10 µM (inconclusive)

SMILES: CCN1CCN(c2ccc(S(=O)(=O)N3CCCCC3)cc2NC(=O)c2cc3ccccc3o2)CC1
- EC50 [3]: 0.31 µM (active)
- EC50 [4]: > 30 µM (not active)
